Article PMC4514675, “Novel Apo E-Derived ABCA1 Agonist Peptide (CS-6253) Promotes Reverse Cholesterol Transport and Induces Formation of preβ-1 HDL In Vitro” (PLoS ONE, 2015)

Tested on: THP-1 foam cells
Assay: Cholesterol efflux from THP-1 macrophage-derived foam cells
Format: cell-based, human
Procedure: Human THP-1 macrophages (American Type Tissue Culture Collection, Camden, NJ) were grown as previously reported. Cells were plated at 2x10^5/ml 24 well-plates in RPMI1640 medium containing 10% fetal bovine serum (FBS), 50 μM β–mercaptoethanol, 50 μg/ml gentamicin, and maintained at 37°C in a humidified atmosphere of 5% CO2. THP-1 cells were differentiated into macrophages by the addition of 200 nM phorbol myristyl acetate (PMA) for 72h. Macrophages were incubated for 72h to become fully differentiated macrophages prior to experiment. […]
Human macrophages THP-1 cells were labelled with ^3H-cholesterol (5 μCi/ml) incorporated into AcLDL (100 μg/ml) in the presence of 1% FBS, 50 μM β-mercaptoethanol and 200 nM PMA, and incubated for 72h. […] Medium and cell associated ^3H-cholesterol were then measured by liquid scintillation counting. Cholesterol efflux was calculated according to the following equation as the percentage of ^3H-cpm medium / (^3H-cpm medium + ^3H-cpm cells) × 100%. […] Bands corresponding to ^3[H]-FC and ^3[H]-CE were located by exposure to iodine vapor, and were scraped off the plate into liquid scintillating vials and assayed for radioactivity.
Fig 2 Effect of CS-6253 treatment on cholesterol efflux. […] Cholesterol efflux from either ABCA1 cells or control cells to apo A-I (closed circles), and CS-6253 (closed triangles) was determined at the indicated time points. […]

Substance: apolipoprotein A-I [apo A-I]
- 3H-FC removed from FC-enriched THP-1 cells (0.96 μM acceptor, 24 h, vs control without acceptor, triplicate wells, mean ± SD): 27.42±1.04%
- proportion of FC mobilized away from the CE cycle (THP-1 foam cells, P<0.05): 29%
